In this test the target is recombinant human SYK (GST-hSYK fusion protein) (Homo sapiens, UniProt P43405). Kind of test: biochemical.

This is an account of results in patent US8551984B2, “Aminopyrimidines as SYK inhibitors” (Merck Sharp & Dohme Corp., priority 2009, dated 2013).

Description: Homogeneous Time-Resolved Fluorescence (HTRF) Assay for the Recombinant Human SYK Enzyme:

As for `Cc1cc(Nc2nccc(C(F)(F)F)n2)cc(-c2cnc(C3(O)CCN(C(=O)CCn4cncn4)CC3)s2)c1` [Example 54A-51], under “RHSYK Activity, Table 54A”, the IC50 is below 100 nM.
With `Cc1cc(Nc2nccc(C(F)(F)F)n2)cc(-c2cnc(C3(O)CCN(C(=O)[C@@H]4CCCC(=O)N4)CC3)s2)c1` [Example 54A-52], the IC50 (RHSYK Activity, Table 54A) was below 100 nM.
As to `Cc1cc(Nc2nccc(C(F)(F)F)n2)cc(-c2cnc(C3(O)CCN(C(=O)CC4CCOCC4)CC3)s2)c1` [Example 54A-53], under “RHSYK Activity, Table 54A”, the IC50 was below 100 nM.
Still for that read-out and setting: then `COC(=O)C1(C(=O)N2CCC(O)(c3ncc(-c4cc(C)cc(Nc5nccc(C(F)(F)F)n5)c4)s3)CC2)CC1` [Example 54A-54], with below 100 nM.
Consider `C#Cc1ccc(C(=O)N2CCC(O)(c3ncc(-c4cc(C)cc(Nc5nccc(C(F)(F)F)n5)c4)s3)CC2)cc1` [Example 54A-55], for which the IC50 (RHSYK Activity, Table 54A) is below 100 nM.
Turning to `Cc1cc(Nc2nccc(C(F)(F)F)n2)cc(-c2cnc(C3(O)CCN(C(=O)c4ccc(C#N)cc4)CC3)s2)c1` [Example 54A-56], for the setting “RHSYK Activity, Table 54A”, the IC50 was below 100 nM.
Same read-out and setting: the result for `Cc1cc(Nc2nccc(C(F)(F)F)n2)cc(-c2cnc(C3(O)CCN(C(=O)c4ccc(O)c(F)c4)CC3)s2)c1` [Example 54A-57] reads below 100 nM; that for `Cc1cc(Nc2nccc(C(F)(F)F)n2)cc(-c2cnc(C3(O)CCN(C(=O)CC(N)C(F)(F)F)CC3)s2)c1` (stereo not shown) [Example 54A-58], below 100 nM.
For `COC(=O)CN1CCC(O)(c2ncc(-c3cc(C)cc(Nc4nccc(C(F)(F)F)n4)c3)s2)CC1` [Example 54A-70], where the note is “RHSYK Activity, Table 54A”, the IC50 was below 100 nM.
On the same count and under the same terms, then `COC(=O)CCN1CCC(O)(c2ncc(-c3cc(C)cc(Nc4nccc(C(F)(F)F)n4)c3)s2)CC1` [Example 54A-71], with below 100 nM.
For `COC(=O)C(C)N1CCC(O)(c2ncc(-c3cc(C)cc(Nc4nccc(C(F)(F)F)n4)c3)s2)CC1` (stereo not shown) [Example 54A-72], under “RHSYK Activity, Table 54A”, the IC50 is below 100 nM.
Consider `COC(=O)CCCN1CCC(O)(c2ncc(-c3cc(C)cc(Nc4nccc(C(F)(F)F)n4)c3)s2)CC1` [Example 54A-73], for which the IC50 (RHSYK Activity, Table 54A) is below 100 nM.
For the compound `Cc1cc(Nc2nccc(C(C)C)n2)cc(-c2cnc(C3(O)CCCNCC3)s2)c1` (stereo not shown) [Example 54D-1], the IC50 (rhSYK Activity, Table 54D) is below 100 nM.
Still for that read-out and setting: the result for `CC(=O)N1CCCC(O)(c2ncc(-c3cc(C)cc(Nc4nccc(C(F)(F)F)n4)c3)s2)CC1` (stereo not shown) [Example 54D-2] reads below 100 nM; that for `Cc1cc(Nc2nccc(C(C)C)n2)cc(-c2cnc(C3(O)CCCN(C(=O)C(C)O)CC3)s2)c1` (stereo not shown) [Example 54D-4], below 100 nM.
As to `CCC(=O)N1CCCC(O)(c2ncc(-c3cc(C)cc(Nc4nccc(C(F)(F)F)n4)c3)s2)CC1` (stereo not shown) [Example 54D-5], the IC50 (rhSYK Activity, Table 54D) was below 100 nM.
The same measure, in the same setting: then `Cc1cc(Nc2nccc(C(C)C)n2)cc(-c2cnc(C3(O)CCCN(C(=O)CC(N)=O)CC3)s2)c1` (stereo not shown) [Example 54D-6], with below 100 nM; and `Cc1cc(Nc2nccc(C(C)C)n2)cc(-c2cnc(C3(O)CCCN(C(=O)CC(=O)O)CC3)s2)c1` (stereo not shown) [Example 54D-7], with below 100 nM.
As for `Cc1cc(Nc2nccc(C(C)C)n2)cc(-c2cnc(C3(O)CCCN(C(=O)C(O)CO)CC3)s2)c1` (stereo not shown) [Example 54D-8], the IC50 (rhSYK Activity, Table 54D) is below 100 nM.
On to `Cc1cc(Nc2nccc(C(F)(F)F)n2)cc(-c2cnc(C3(O)CCCN(C(=O)CC#N)CC3)s2)c1` (stereo not shown) [Example 54D-9], for which the IC50 (rhSYK Activity, Table 54D) is below 100 nM.
On the same count and under the same terms, then `Cc1cc(Nc2nccc(C(F)(F)F)n2)cc(-c2cnc(C3(O)CCCN(C(=O)C4CC4)CC3)s2)c1` (stereo not shown) [Example 54D-10], with below 100 nM; and `C=CCC(=O)N1CCCC(O)(c2ncc(-c3cc(C)cc(Nc4nccc(C(F)(F)F)n4)c3)s2)CC1` (stereo not shown) [Example 54D-11], with below 100 nM.
Still for that read-out and setting: then `COCC(=O)N1CCCC(O)(c2ncc(-c3cc(C)cc(Nc4nccc(C(F)(F)F)n4)c3)s2)CC1` (stereo not shown) [Example 54D-12], with below 100 nM.
As to `Cc1cc(Nc2nccc(C(F)(F)F)n2)cc(-c2cnc(C3(O)CCCN(C(=O)CCO)CC3)s2)c1` (stereo not shown) [Example 54D-13], the concentration for half-maximal inhibition (IC50) (rhSYK Activity, Table 54D) was below 100 nM.
On the same count and under the same terms, then `Cc1cc(Nc2nccc(C(F)(F)F)n2)cc(-c2cnc(C3(O)CCCN(C(=O)C(C)O)CC3)s2)c1` (stereo not shown) [Example 54D-14], with below 100 nM; and `Cc1cc(Nc2nccc(C(C)C)n2)cc(-c2cnc(C3(O)CCCN(C(=O)CCC(N)=O)CC3)s2)c1` (stereo not shown) [Example 54D-15], with below 100 nM; and `Cc1cc(Nc2nccc(C(F)(F)F)n2)cc(-c2cnc(C3(O)CCCN(C(=O)CCC#N)CC3)s2)c1` (stereo not shown) [Example 54D-16], with below 100 nM.
The same measure, in the same setting: then `Cc1cc(Nc2nccc(C(C)C)n2)cc(-c2cnc(C3(O)CCCN(C(=O)Cn4cnnn4)CC3)s2)c1` (stereo not shown) [Example 54D-19], with below 100 nM.
Consider `Cc1cc(Nc2nccc(C(F)(F)F)n2)cc(-c2cnc(C3(O)CCCN(C(=O)CC(N)=O)CC3)s2)c1` (stereo not shown) [Example 54D-22], for which the IC50 (rhSYK Activity, Table 54D) was below 100 nM.
Take `Cc1cc(Nc2nccc(C(F)(F)F)n2)cc(-c2cnc(C3(O)CCCN(C(=O)CC(C)O)CC3)s2)c1` (stereo not shown) [Example 54D-23]: under “rhSYK Activity, Table 54D”, the IC50 was below 100 nM.
With `Cc1cc(Nc2nccc(C(F)(F)F)n2)cc(-c2cnc(C3(O)CCCN(C(=O)CC(=O)O)CC3)s2)c1` (stereo not shown) [Example 54D-24], the IC50 (rhSYK Activity, Table 54D) was below 100 nM.
For the compound `Cc1cc(Nc2nccc(C(F)(F)F)n2)cc(-c2cnc(C3(O)CCCN(C(=O)C(O)CO)CC3)s2)c1` (stereo not shown) [Example 54D-27], under “rhSYK Activity, Table 54D”, the IC50 is below 100 nM.
The same measure, in the same setting: then `CCOC(=O)CC(=O)N1CCCC(O)(c2ncc(-c3cc(C)cc(Nc4nccc(C(C)C)n4)c3)s2)CC1` (stereo not shown) [Example 54D-30], with below 100 nM; and `Cc1cc(Nc2nccc(C(C)C)n2)cc(-c2cnc(C3(O)CCCN(C(=O)C(C)(CO)CO)CC3)s2)c1` (stereo not shown) [Example 54D-31], with below 100 nM; and `Cc1cc(Nc2nccc(C(F)(F)F)n2)cc(-c2cnc(C3(O)CCCN(C(=O)c4ncc[nH]4)CC3)s2)c1` (stereo not shown) [Example 54D-34], with below 100 nM.
As for `Cc1cc(Nc2nccc(C(F)(F)F)n2)cc(-c2cnc(C3(O)CCCN(C(=O)C4CCCO4)CC3)s2)c1` (stereo not shown) [Example 54D-40], where the note is “rhSYK Activity, Table 54D”, the IC50 is below 100 nM.
Take `Cc1cc(Nc2nccc(C(F)(F)F)n2)cc(-c2cnc(C3(O)CCCN(C(=O)CCC(=O)O)CC3)s2)c1` (stereo not shown) [Example 54D-43]: the IC50 (rhSYK Activity, Table 54D) was below 100 nM.
On the same count and under the same terms, then `Cc1cc(Nc2nccc(C(F)(F)F)n2)cc(-c2cnc(C3(O)CCCN(C(=O)CC(C)(C)O)CC3)s2)c1` (stereo not shown) [Example 54D-44], with below 100 nM.
On the same count and under the same terms, then `Cc1cc(Nc2nccc(C(F)(F)F)n2)cc(-c2cnc(C3(O)CCCN(C(=O)c4ccccc4)CC3)s2)c1` (stereo not shown) [Example 54D-45], with below 100 nM; and `Cc1cc(Nc2nccc(C(F)(F)F)n2)cc(-c2cnc(C3(O)CCCN(C(=O)Cn4ccnc4)CC3)s2)c1` (stereo not shown) [Example 54D-46], with below 100 nM.
In the case of `Cc1cc(Nc2nccc(C(F)(F)F)n2)cc(-c2cnc(C3(O)CCCN(C(=O)Cc4c[nH]cn4)CC3)s2)c1` (stereo not shown) [Example 54D-47], the IC50 (rhSYK Activity, Table 54D) is below 100 nM.
On to `Cc1cc(Nc2nccc(C(F)(F)F)n2)cc(-c2cnc(C3(O)CCCN(C(=O)c4cc(C)on4)CC3)s2)c1` (stereo not shown) [Example 54D-48], for which the IC50 (rhSYK Activity, Table 54D) is below 100 nM.
Consider `Cc1cc(Nc2nccc(C(F)(F)F)n2)cc(-c2cnc(C3(O)CCCN(C(=O)Cn4cncn4)CC3)s2)c1` (stereo not shown) [Example 54D-49], for which the IC50 (rhSYK Activity, Table 54D) is below 100 nM.
The same measure, in the same setting: the result for `Cc1cc(Nc2nccc(C(F)(F)F)n2)cc(-c2cnc(C3(O)CCCN(C(=O)CC(F)(F)F)CC3)s2)c1` (stereo not shown) [Example 54D-54] reads below 100 nM; that for `Cc1cc(Nc2nccc(C(F)(F)F)n2)cc(-c2cnc(C3(O)CCCN(C(=O)c4nnnn4C)CC3)s2)c1` (stereo not shown) [Example 54D-55], below 100 nM.
As for `Cc1cc(Nc2nccc(C(F)(F)F)n2)cc(-c2cnc(C3(O)CCCN(C(=O)Cn4cnnn4)CC3)s2)c1` (stereo not shown) [Example 54D-56], the IC50 (rhSYK Activity, Table 54D) was below 100 nM.
On the same count and under the same terms, the result for `Cc1cc(Nc2nccc(C(F)(F)F)n2)cc(-c2cnc(C3(O)CCCN(C(=O)C4CCC(=O)N4)CC3)s2)c1` (stereo not shown) [Example 54D-61] reads below 100 nM; that for `Cc1cc(Nc2nccc(C(F)(F)F)n2)cc(-c2cnc(C3(O)CCCN(C(=O)c4n[nH]c(=O)[nH]4)CC3)s2)c1` (stereo not shown) [Example 54D-62], below 100 nM.
Same read-out and setting: the result for `Cc1cc(Nc2nccc(C(F)(F)F)n2)cc(-c2cnc(C3(O)CCCN(C(=O)C4CNC(=O)N4)CC3)s2)c1` (stereo not shown) [Example 54D-64] reads below 100 nM; that for `Cc1cc(Nc2nccc(C(F)(F)F)n2)cc(-c2cnc(C3(O)CCCN(C(=O)C4CCCCO4)CC3)s2)c1` (stereo not shown) [Example 54D-65], below 100 nM; that for `Cc1cc(Nc2nccc(C(F)(F)F)n2)cc(-c2cnc(C3(O)CCCN(C(=O)C4CCC(=O)O4)CC3)s2)c1` (stereo not shown) [Example 54D-66], below 100 nM.
The same measure, in the same setting: the result for `Cc1cc(Nc2nccc(C(F)(F)F)n2)cc(-c2cnc(C3(O)CCCN(C(=O)CC4CCOC4)CC3)s2)c1` (stereo not shown) [Example 54D-67] reads below 100 nM; that for `Cc1cc(Nc2nccc(C(F)(F)F)n2)cc(-c2cnc(C3(O)CCCN(C(=O)C4CCCOC4)CC3)s2)c1` (stereo not shown) [Example 54D-68], below 100 nM; that for `Cc1cc(Nc2nccc(C(F)(F)F)n2)cc(-c2cnc(C3(O)CCCN(C(=O)C4(C(=O)O)CC4)CC3)s2)c1` (stereo not shown) [Example 54D-70], below 100 nM.
Regarding `Cc1cc(Nc2nccc(C(F)(F)F)n2)cc(-c2cnc(C3(O)CCCN(C(=O)C4CC4C(=O)O)CC3)s2)c1` (stereo not shown) [Example 54D-71], the IC50 (rhSYK Activity, Table 54D) was below 100 nM.
Still for that read-out and setting: then `COC(=O)CCC(=O)N1CCCC(O)(c2ncc(-c3cc(C)cc(Nc4nccc(C(F)(F)F)n4)c3)s2)CC1` (stereo not shown) [Example 54D-72], with below 100 nM.
In the case of `CCOC(=O)CC(=O)N1CCCC(O)(c2ncc(-c3cc(C)cc(Nc4nccc(C(F)(F)F)n4)c3)s2)CC1` (stereo not shown) [Example 54D-73], where the note is “rhSYK Activity, Table 54D”, the IC50 is below 100 nM.
The same measure, in the same setting: then `Cc1cc(Nc2nccc(C(F)(F)F)n2)cc(-c2cnc(C3(O)CCCN(C(=O)CCNC(N)=O)CC3)s2)c1` (stereo not shown) [Example 54D-76], with below 100 nM; and `Cc1cc(Nc2nccc(C(F)(F)F)n2)cc(-c2cnc(C3(O)CCCN(C(=O)C(O)C(C)(C)O)CC3)s2)c1` (stereo not shown) [Example 54D-77], with below 100 nM.
In the case of `Cc1cc(Nc2nccc(C(F)(F)F)n2)cc(-c2cnc(C3(O)CCCN(C(=O)C(C)(CO)CO)CC3)s2)c1` (stereo not shown) [Example 54D-78], the IC50 (rhSYK Activity, Table 54D) was below 100 nM.
In the case of `Cc1cc(Nc2nccc(C(F)(F)F)n2)cc(-c2cnc(C3(O)CCCN(C(=O)Cc4cccnc4)CC3)s2)c1` (stereo not shown) [Example 54D-81], the IC50 (rhSYK Activity, Table 54D) was below 100 nM.
